Source: the supplement of paper PMC10307832

Legend:
Assay in all cases: relative viability (nuclei count vs DMSO), 5 days (fraction); higher = more cells survive
[1] = compound: COc1cc(Nc2ncc(F)c(Nc3ccc4c(n3)NC(=O)C(C)(C)O4)n2)cc(OC)c1OC [R406] + Nc1nc2[nH]cc(CCc3ccc(C(=O)N[C@@H](CCC(=O)O)C(=O)O)cc3)c2c(=O)[nH]1 [Pemetrexed] (partner 0.2 µM)
Method in brief: (§1)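 Relative viability equals treated-well nuclei counts divided by vehicle-well nuclei counts. Counts came from 4× images of lung cancer cell lines grown in 1536-well plates for 5 days after pin-tool dosing on the day after seeding. Dosing used one drug alone or a fixed anchor-drug dose plus five library-drug doses (not always all listed) in √10 steps, and values are medians of duplicate plates.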

[2] = compound: O=C(/C=C/c1cccnc1)NCCCCC1CCN(C(=O)c2ccccc2)CC1 [Daporinad] + CC(=O)Nc1cccc(-n2c(=O)n(C3CC3)c(=O)c3c(Nc4ccc(I)cc4F)n(C)c(=O)c(C)c32)c1 [Trametinib] (partner 0.02 µM)
Method in brief: as §1

[3] = compound: O=C(/C=C/c1cccnc1)NCCCCC1CCN(C(=O)c2ccccc2)CC1 [Daporinad] + COc1cc2c(Oc3ccc(NC(=O)C4(C(=O)Nc5ccc(F)cc5)CC4)cc3F)ccnc2cc1OCCCN1CCOCC1 [Foretinib] (partner 0.25 µM)
Method in brief: as §1

[4] = compound: O=C(/C=C/c1cccnc1)NCCCCC1CCN(C(=O)c2ccccc2)CC1 [Daporinad] + Nc1nc2[nH]cc(CCc3ccc(C(=O)N[C@@H](CCC(=O)O)C(=O)O)cc3)c2c(=O)[nH]1 [Pemetrexed] (partner 0.2 µM)
Method in brief: as §1

Row | Cell Line | relative viability ([1]; first compound 0.08 µM) | relative viability ([1]; first compound 0.253 µM) | relative viability ([1]; first compound 0.8 µM) | relative viability ([1]; first compound 2.53 µM) | relative viability ([1]; first compound 8 µM) | relative viability ([2]; first compound 0.0005 µM) | relative viability ([2]; first compound 0.001581 µM) | relative viability ([2]; first compound 0.005 µM) | relative viability ([2]; first compound 0.01581 µM) | relative viability ([3]; first compound 0.0005 µM) | relative viability ([3]; first compound 0.001581 µM) | relative viability ([3]; first compound 0.005 µM) | relative viability ([3]; first compound 0.01581 µM) | relative viability ([4]; first compound 0.0005 µM) | relative viability ([4]; first compound 0.001581 µM) | relative viability ([4]; first compound 0.005 µM) | relative viability ([4]; first compound 0.01581 µM)
1 | COR-L 105 | 1.29 | 1.22 | 1.12 | 1.24 | 0.841 | 0.445 | 0.41 | 0.496 | 0.469 | 1.09 | 0.812 | 0.983 | 1.14 | 1.21 | 1 | 1.18 | 1.02
2 | LK-2 | 0.192 | 0.326 | 0.38 | 0.191 | 0.126 | 0.783 | 0.795 | 0.764 | 0.283 | 1.08 | 1.54 | 1.29 | 0.308 | 0.314 | 0.331 | 0.188 | 0.142
3 | 201T | 0.322 | 0.359 | 0.322 | 0.309 | 0.294 | 0.713 | 0.731 | 0.705 | 0.735 | 1.08 | 1.14 | 1.02 | 1.16 | 0.333 | 0.315 | 0.313 | 0.34
4 | NCI-H647 | 0.172 | 0.178 | 0.17 | 0.0932 | 0.0585 | 0.456 | 0.572 | 0.603 | 0.672 | 1.32 | 1.18 | 1.06 | 1.28 | 0.193 | 0.191 | 0.173 | 0.21
5 | H3255 | 0.547 | 0.588 | 0.606 | 0.521 | 0.49 | 0.557 | 0.637 | 0.645 | 0.71 | 0.709 | 0.688 | 0.672 | 0.992 | 0.573 | 0.561 | 0.616 | 0.638
6 | NCI-H650 | 0.912 | 1.13 | 0.953 | 0.779 | 0.591 | 1.05 | 1.14 | 1.01 | 1.27 | 1.08 | 1.09 | 1.01 | 1.08 | 0.903 | 0.949 | 1.02 | 1.16
7 | NCI-H2023 | 0.216 | 0.223 | 0.199 | 0.19 | 0.124 | 0.605 | 0.523 | 0.539 | 0.621 | 0.818 | 0.682 | 0.743 | 0.975 | 0.224 | 0.231 | 0.267 | 0.202
8 | NCI-H23 | 0.565 | 0.806 | 0.782 | 0.17 | 0.248 | 0.395 | 0.382 | 0.412 | 0.342 | 0.898 | 1.02 | 0.991 | 0.611 | 0.797 | 0.562 | 0.767 | 0.31
9 | NCI-H596 | 0.527 | 0.554 | 0.428 | 0.392 | 0.324 | 0.704 | 0.791 | 0.74 | 0.48 | 0.864 | 0.965 | 0.819 | 0.325 | 0.432 | 0.457 | 0.525 | 0.36
10 | NCI-H520 | 0.698 | 0.724 | 0.675 | 0.285 | 0.153 | 0.639 | 0.721 | 0.185 | 0.136 | 0.815 | 0.384 | 0.324 | 0.181 | 0.67 | 0.395 | 0.239 | 0.149
11 | EKVX | 0.374 | 0.467 | 0.395 | 0.365 | 0.387 | 0.288 | 0.329 | 0.43 | 0.372 | 0.747 | 0.443 | 0.877 | 0.756 | 0.344 | 0.468 | 0.389 | 0.343
12 | NCI-H1944 | 0.617 | 0.617 | 0.684 | 0.571 | 0.411 | 0.449 | 0.464 | 0.469 | 0.399 | 0.897 | 0.903 | 0.971 | 0.945 | 0.607 | 0.716 | 0.706 | 0.577
13 | EPLC-272H | 0.359 | 0.359 | 0.316 | 0.231 | 0.151 | 0.295 | 0.317 | 0.284 | 0.31 | 0.695 | 0.925 | 0.845 | 1.11 | 0.327 | 0.339 | 0.312 | 0.413
14 | NCI-H1395 | 0.865 | 1.01 | 0.856 | 0.865 | 0.434 | 1.04 | 1.04 | 1.14 | 1.06 | 1.08 | 0.954 | 1.01 | 1.15 | 0.839 | 1.05 | 0.896 | 0.927
15 | NCI-H2126 | 0.749 | 0.664 | 0.722 | 0.599 | 0.61 | 0.562 | 0.548 | 0.604 | 0.587 | 1.24 | 1.15 | 1.06 | 1.34 | 0.644 | 0.68 | 0.694 | 0.7
16 | LXF-289 | 0.874 | 0.912 | 0.908 | 0.887 | 0.725 | 0.569 | 0.663 | 0.689 | 0.681 | 0.892 | 1.09 | 0.968 | 0.962 | 0.837 | 0.978 | 0.937 | 0.889
17 | NCI-H2009 | 0.969 | 1.09 | 1.05 | 0.979 | 0.946 | 0.261 | 0.35 | 0.315 | 0.31 | 1.16 | 1.24 | 1.23 | 0.897 | 1.04 | 1.01 | 0.872 | 0.545
